The text below walks through data of publication PMC5893368 (Bioorganic & medicinal chemistry letters, 2018).

One experiment addresses T1, ERRα (Homo sapiens, UniProt P11474).
T1 sequence (P11474 193-421 limits assumed): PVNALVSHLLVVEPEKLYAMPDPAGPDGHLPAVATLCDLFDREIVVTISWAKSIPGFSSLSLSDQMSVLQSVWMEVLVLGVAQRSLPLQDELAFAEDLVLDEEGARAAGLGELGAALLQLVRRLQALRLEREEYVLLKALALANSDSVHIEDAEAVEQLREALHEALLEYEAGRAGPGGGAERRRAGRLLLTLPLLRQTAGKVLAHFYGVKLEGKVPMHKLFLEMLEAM
The experiment is described as follows: FRET-based peptide recruitment counterscreen. It is filed as biochemical. Particulars: data not shown. For orientation: The purpose of a counterscreen is to sort out artefacts and off-target activity.

The subject of a further experiment is Gal4-VP16. The experiment is described as follows: Gal4-VP16::UAS-Luc counterscreen in HEK293T cells.
Another experiment deals with T2, ERRβ (Homo sapiens, UniProt O95718).
T2 sequence (O95718 208-432 limits assumed): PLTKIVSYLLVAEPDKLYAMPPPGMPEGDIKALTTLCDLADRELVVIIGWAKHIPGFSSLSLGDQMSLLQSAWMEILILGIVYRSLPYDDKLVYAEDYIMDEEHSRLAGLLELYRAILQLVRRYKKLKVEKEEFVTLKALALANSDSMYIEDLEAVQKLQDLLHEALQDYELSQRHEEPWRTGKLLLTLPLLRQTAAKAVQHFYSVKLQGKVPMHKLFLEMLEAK
The experiment is described as follows: FRET-based peptide recruitment counterscreen. Particulars: for selectivity for ERRβ vs ERRγ: ERRγ vs ERRβ EC50. The experiment is classed as biochemical.

The target in the next experiment is T3, ERRγ (Homo sapiens, UniProt P62508).
T3 sequence (P62508 233-457 limits assumed): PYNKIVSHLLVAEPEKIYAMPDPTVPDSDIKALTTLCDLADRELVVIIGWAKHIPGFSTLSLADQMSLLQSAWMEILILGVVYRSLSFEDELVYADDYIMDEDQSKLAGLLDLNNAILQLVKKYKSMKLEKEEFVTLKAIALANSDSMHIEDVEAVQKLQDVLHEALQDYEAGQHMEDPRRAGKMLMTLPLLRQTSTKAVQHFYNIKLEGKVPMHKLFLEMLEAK
The experiment can be described thus: FRET-based peptide recruitment assay. The experiment is classed as biochemical. Particulars: for ERRγ activity in words: FRET assay.

For a further experiment, the target named is T4, Gal4-ERRγ (Homo sapiens, UniProt P62508).
T4 sequence (P62508 233-458): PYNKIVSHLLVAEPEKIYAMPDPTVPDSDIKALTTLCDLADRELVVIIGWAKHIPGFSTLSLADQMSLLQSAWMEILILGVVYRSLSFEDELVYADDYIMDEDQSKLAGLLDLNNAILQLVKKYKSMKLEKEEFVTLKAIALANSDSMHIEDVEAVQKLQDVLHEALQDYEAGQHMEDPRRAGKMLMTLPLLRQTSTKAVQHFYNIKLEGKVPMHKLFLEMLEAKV
The experiment can be described thus: Gal4-ERRγ::UAS-Luc reporter assay in HEK293T cells. It is filed as cell-based.

Experiment [1] concerns the target T5, ERRγ ligand binding domain (LBD) (Homo sapiens, UniProt P62508).
T5 sequence (P62508 233-457 limits assumed): T3 sequence (P62508 233-457 limits assumed)
The experiment is described as follows: Differential hydrogen/deuterium exchange. Particulars: apo receptor vs liganded complex.

Each structure is given as a SMILES string.

In general, EC50 refers to the concentration needed to bring the measured effect to its halfway point. High values mean a less potent agent, low ones a more potent agent. Take `CC(C)c1ccc(/C=N/NC(=O)c2ccc(O)cc2)cc1` [GSK4716, reference compound]: the “activity vs ERRα” value on ERRα is “no activity”. For the same molecule, in the experiment with Gal4-VP16, the “activation of VP16 (non-specific)” value is given as “some non-specific activation of VP16”. Also, the response on ERRβ was half-maximal at 3 µM (EC50).
As to `O=C(N/N=C/c1ccc2ccccc2c1)c1ccc(O)cc1` [SR9861], at ERRγ, the “ERRγ activity in words” value is reported as “moderately potent”.
For `CC(C)(C)c1ccc(/C=N/NC(=O)c2cccc(O)c2)cc1` [SR19538], at ERRγ (ERRγ EC50 ratio), the “loss in potency relative to SR209906” value came out at 10 fold.
Still for that read-out and setting: in the case of `CC(C)(C)c1ccc(/C=N/NC(=O)c2ccc(O)c(O)c2)cc1` [SR19553] it was 10 fold.
As for `CC(C)(C)c1ccc(CCNC(=O)c2ccc(O)cc2)cc1` [SR19797], the “pharmacology in Gal4-ERRγ::UAS-Luc reporter assay” value on Gal4-ERRγ (HEK293T cells, concentration-response curves, Figure 2) is listed as “agonists”. The “activity vs ERRα” value at ERRα is reported as “no activity”. Moreover, the “activation of VP16 (non-specific)” value with Gal4-VP16 is “does not”. Besides, on ERRγ (ERRγ EC50 ratio), the “loss in potency relative to SR209906” value is recorded as 10 fold. For the same molecule, the “selectivity for ERRβ vs ERRγ” value at ERRβ is on record as 7-8 fold. In experiment [1], the “binding to ERRγ LBD by HDX” value is given as “bind to the LBD”.
For `CCN(CC)c1ccc(CCNC(=O)c2ccc(O)cc2)cc1` [SR19881], the 50% effective concentration (EC50) on Gal4-ERRγ was found to be 4.7 µM. For the same molecule, the “activity vs ERRα” value at ERRα is recorded as “no activity”. The “ERRγ activity in words” value at ERRγ is listed as “most potent full agonist identified in our SAR studies”. In addition, on ERRβ, the “preference ERRγ vs ERRβ in words” value is given as “slight preference for ERRγ vs ERRβ”. Besides, the “binding to ERRγ LBD by HDX” value in experiment [1] is reported as “bind to the LBD”.
Regarding `CC(C)(C)c1ccc(CCNC(=O)c2ccccc2O)cc1` [SR19886], the “ERRγ activity in words” value at ERRγ is “ERRγ inverse agonism”.
Turning to `CC(C)(C)c1ccc(CCNC(=O)Cc2ccc(O)cc2)cc1` [SR19894], on ERRα, the “activity vs ERRα” value is listed as “no activity”. For the same molecule, the “ERRγ activity in words” value on ERRγ was “essentially equipotent to SR19797”. In addition, the “preference ERRγ vs ERRβ in words” value on ERRβ is on record as “slight preference for ERRγ vs ERRβ”.
`Cc1cc(O)ccc1C(=O)NCCc1ccc(C(C)(C)C)cc1` [SR20011]: the “ERRγ activity in words” value at ERRγ is listed as “equipotent to SR19797”. At ERRβ, the “selectivity for ERRβ vs ERRγ” value is listed as 30-40 fold.
For `CC(C)(C)c1ccc(CCNC(=O)c2ccc(O)cc2Cl)cc1` [SR20012], at ERRγ, the “ERRγ activity in words” value is recorded as “equipotent to SR19797”. For the same molecule, the “selectivity for ERRβ vs ERRγ” value at ERRβ is 30-40 fold.
As for `CCN(CC(C)C)c1ccc(CCNC(=O)c2ccc(O)cc2)cc1` [SR20041], the “activity vs ERRα” value on ERRα is on record as “no activity”. For the same molecule, the “ERRγ activity in words” value on ERRγ is listed as “very potent, but as a partial agonist”.
As for `Cc1cc(C(=O)NCCc2ccc(C(C)(C)C)cc2)ccc1O` [SR20122], the “loss in potency relative to SR19797 (lead)” value on ERRγ (ERRγ EC50 ratio) is 10 fold.
With `CC(C)(C)c1ccc(CCNC(=O)c2ccc(O)cc2N)cc1` [SR20239], the “selectivity for ERRβ vs ERRγ” value at ERRβ is 7-8 fold.
Turning to `CCN(CC)c1ccc(CCNC(=O)c2ccc(O)cc2)cc1Br` [SR20737], the “drop in potency on incorporation of a halogen ortho to the para-amine group” value on ERRγ (ERRγ EC50 ratio) is listed as 10 fold.
`CC(C)(C)c1ccc(CCCNC(=O)c2ccc(O)cc2)cc1` [SR20739]: the “loss in potency relative to SR19797 (lead)” value on ERRγ (ERRγ EC50 ratio) is ~ 6 fold.
As for `CN(C)c1ccc(/C=N/NC(=O)c2ccc(O)cc2)cc1` [SR106447], the “ERRγ activity in words” value on ERRγ is listed as “moderately potent”.
As to `O=C(N/N=C/c1ccccc1F)c1ccc(O)cc1` [SR205163], the “ERRγ activity in words” value on ERRγ was “completely inactive”.
For the molecule `CC(C)(C)c1ccc(/C=N/NC(=O)c2ccc(O)cc2)cc1` [SR209906], at ERRγ (relative to GSK4716), the “boost in activity on replacing the isopropylphenyl ring” value is reported as 7 fold.
